Experimental data reported in US5591773A, “Inhibition of cataract formation, diseases resulting from oxidative stress, and HIV replication by caffeic acid esters” (priority 1994, dated 1997).
“And” between values parts separate entries of the source, which are not always exact repeats. Equal values may be shown once. “Also recorded” adds a separate entry of the source.

What was measured:
[1] = tested on: 8-OHdGua in epidermal DNA; test: TPA-induced 8-OHdGua formation in epidermal DNA of SENCAR mice; type: in vivo
Method: (§1) FIGS. 2A-2D. CAPE-mediated inhibition of TPA-induced oxidative processes in SENCAR mice. Mice were topically treated with 6.5 nmol CAPE 30 min prior to 6.5 nmol TPA, and this regimen was repeated 20 h later. Mice were sacrificed 1 h after the last treatment and the skin removed for determination of: (FIG. 2A) PMN infiltration (by measuring myeloperoxidase (MPO)); (FIG. 2B) H2 O2; (FIG. 2C) HMdUrd (HMdU); and (FIG. 2D) 8-OHdGua (8-OHdG), according to procedures described in the "Experimental Details" Section, infra. .quadrature., controls treated with acetone in place of CAPE and TPA; , treatment with acetone followed by TPA; .box-solid., treatment with CAPE followed by TPA. Results are expressed as mean ± SE (bars) from two experiments (2 mice/experiment) in the CAPE series. Data for acetone (ACT)- and TPA-treated mean values were collected from over 20 experiments.
(§2) C) MPO, H2 O2, and Oxidized DNA Bases. SENCAR mice were pretreated with CAPE for 30 min; then 6.5 nmol (4 μg) TPA/mouse topically applied to the dorsal skin. After 20 h, the CAPE and TPA treatment (1x) was repeated (2x treatment). One h after the second treatment, the mice were sacrificed by cervical dislocation, and 12.5-mm punches were obtained to be used separately for MPO and H2 O2 determinations. The remainder of the treated mouse skin or the combined skins from two mice were used for separation of epidermal cells. This was done by heating the skin at 55° C. for 30 s followed by rapid immersion into an ice-cold water bath (45). After the epidermis was scraped off, the presence of oxidized DNA base derivatives was measured in the epidermal DNA. All of these end points were analyzed by published procedures and are briefly described below.
(§3) The epidermis was homogenized and lysed, and the proteins and RNA were removed by proteinase K and RNase digestions, respectively (20). The DNA was separated and purified on A.S.A.P. columns (Boehringer-Mannheim Biochemicals) and precipitated with isopropyl alcohol.
(§4) The pellet was then washed with 70% ethyl alcohol, dried, and dissolved in 10 mM Tris.cndot.HCl-100 mM NaCl buffer, pH 7.0, according to the manufacturer's procedure. The DNA was sheared and enzymatically digested to nucleosides, and the hydrolysates were separated by HPLC (Beckman, Model 344) on an ODS column (Altex, 1×25 cm; 5 μm particle size) (50). The fractions that eluted after 30 ml were combined (excluding those containing normal nucleosides) and dried. The oxidized nucleosides were detected by ^3 H-postlabeling with [^3 H]acetic anhydride, followed by HPLC analysis of ^3 H-containing acetates in the presence of marker acetates (50). The results are presented as the number of oxidized nucleosides/10^4 normal bases, unless otherwise stated.
(§5) ^a Mice were treated as described in the legend to FIG. 2, except tha

[2] = tested on: TPA-induced edema in SENCAR mouse ears; test: TPA-induced ear edema; type: in vivo, SENCAR mice
Method: FIG. 3. Effect of CAPE on TPA-induced PMN infiltration and edema in SENCAR mouse ears. These were paired experiments, in which both ears of each mouse (8-9/group) were treated with 0.4 nmol TPA±CAPE in 20 μl acetone, and the mice were sacrificed 5 h later. (A) One ear was frozen for subsequent determination of MPO (a measure of PMN infiltration). (B) A punch (6 mm diameter) was taken from the second ear and weighed to measure edematous response (weight of sample minus weight of control). (A) Ears of each group (7-9/group) were separately minced and homogenized under different conditions as described in the "Experimental Details" Section, infra. MPO was determined in duplicate. MPO was undetectable in acetone controls and was 4.13±0.0 units/mg protein and 1.18±0.1 units/mg protein in the 2 homogenates of TPA-only-treated mice. CAPE-mediated inhibition was calculated versus the appropriate TPA-only sample, which was homogenized the same way. (B) Weights of ear punches (8-9/group, each determined separately). Acetone controls, 7.2±0.1 mg; TPA in acetone, 16.7±0.7 mg.
B) Edema Determination. Both ears of SENCAR mice (7-9 mice/group) were treated with 0.4 nmol TPA in 20 μl acetone alone or together with added 0.1 nmol, 0.3 nmol, or […] CAPE. Control mice were treated with acetone. The mice were sacrificed by cervical dislocation 5 h after treatment, and edema was measured on one mouse ear, while the second ear was immediately frozen and later analyzed for PMN infiltration by quantifying myeloperoxidase (MPO) (see below). Ear edema (increased weight of ear punches) was determined as previously described (24). Edema was expressed as mg/6 mm (diameter) ear punch±SE.

[3] = tested on: TPA-induced cataracts in eyes of rabbits; test: TPA-induced cataracts in rabbits in vivo; set-up: species or system white New Zealand rabbits; conditions: for cataract appearance, rabbit No. 5 (in words): conclusion of the experiment; for cataract appearance, other test animals (in words): rabbit, in vivo
Method: B) Test animals. Six healthy young (6-8 weeks old) white New Zealand rabbits of both sexes were used for the experiments. Each animal had normal eyes as confirmed by ocular examination by slit lamp.
C) Treatment of animals and monitoring the eye alterations. Cataracts were induced by the direct application of both TPA and CAPE into the eye chamber. On every third day, 0.05 ml of the TPA solution (200 μg/ml PBS) was injected into the anterior chamber of both eyes via a puncture at the corneo-scleral limbus with a fine 0.3×42 mm needle joined to a tuberculin syringe. The animals were all given local anesthesia with HUMACAIN eye drops (human, Godollo, Hungary) under sterile conditions for each application. One hour after TPA was injected, 0.05 ml of the CAPE solution (50 μg/ml) was administered into the anterior chamber of only the left eye, as above. The right eye of each animal received no further treatment. This procedure was repeated a total of 16 times. Periodic ocular examinations by slit lamp were performed after the 6th, 12th, and final drug applications. Subsequently, examinations were made on the 10th and 23rd days after the last drug treatment. After each ocular examination, the physical findings were recorded and photodocumentation of the eye changes were performed. The photographic documentary was executed in the following manner. Firstly, lenses were illuminated by a fiber optic light source from behind and photographs were taken from a distance of 5-6 cm. The diapositive black and white images on paper were transferred into an IBM personal computer (system 2, model 30) using a Sony-2-Cue CCD video camera that was equipped with Fujinon TV zoom objective (1:1.8) via a 17.5-105 signal-transfer system. Finally, with these computer image reconstructions, the areas of the lens opacifications were delineated and quantified using the Olympus image analyzer C-2 morphometry version 2.2 program.

HMdUrd in epidermal DNA = test: TPA-induced HMdUrd formation in epidermal DNA of SENCAR mice; type: in vivo
Method: as §1, §2, §3, §4, §5

[4] = CAPE 6.5 nmol, TPA 6.5 nmol, 2x

Question: For O=C(/C=C/c1ccc(O)c(O)c1)OCCc1ccccc1 [CAPE, Caffeic acid phenethyl ester], which “8-OHdGua/10^5 bases” value ([1]; CAPE 6.5 nmol then TPA 6.5 nmol, 2x, (2 experiments), SE 0.8 on next line) is on record?
Answer: The value was 1.4 /10^5 bases.

Question: What about the “8-OHdGua suppression below acetone controls (basal levels)” value [1, 4] of the same molecule?
Answer: The value was 70%.

Question: What about the “decline of 8-OHdGua formation” value [1, 4] of the same molecule?
Answer: Its value is about 170%.

Question: What about the “8-OHdGua/10^5 bases” value ([1]; CAPE 650 nmol then TPA 6.5 nmol, 2x, (2 experiments), SE 1.1 on next line) of the same molecule?
Answer: Its value is 9.4 /10^5 bases.

Question: What about the “inhibition of inflammatory processes, particularly oxidation of bases in DNA (in words)” value ([1]; compared with untreated blanks) of the same molecule?
Answer: Its value is “down to the background levels represented by untreated blanks”.

Question: And the “orders of magnitude higher CAPE dose needed for similar inhibition of edema vs PMN infiltration” value ([2]; 1 μmol vs 0.1 nmol CAPE/ear)?
Answer: The value was 4 orders of magnitude.

Question: What about the “inhibition of TPA-induced ear edema (in words)” value ([2]; CAPE 1 μmol/ear, TPA 0.4 nmol/ear) of the same molecule?
Answer: The value was “inhibits”.

Question: And the “fold higher CAPE dose required to comparably inhibit ear edema versus PMN infiltration in skin” value ([2]; relative to 6.5 nmol CAPE, same mouse strain, (76))?
Answer: Its value is over 100 fold.

Question: And the “area of TPA-induced cataracts larger in eye without CAPE than in CAPE-injected eye” value ([3]; 5 of 6 animals)?
Answer: Its value is 2.2-44.2 times.

Question: And the “Size of cataract, CAPE (TPA + CAPE treated left eye)” value ([3]; CAPE 0.05 ml of 50 μg/ml 1 h after TPA, 16 times, one line per animal)?
Answer: The value was 1.428 relative units and 6.739 relative units and 10.77 relative units and 28.722 relative units and 30.199 relative units and 43.184 relative units.

Question: What about the “cataract appearance, rabbit No. 5 (in words)” value [3] of the same molecule?
Answer: The value was “a small capsular-subcapsular immature cataract is evident”.

Question: And the “Size of cataract, % of Control” value ([3]; left (TPA + CAPE) vs right (TPA) eye of the same animal, one line per animal)?
Answer: The value was 2.25% and 45.83% and 10.26% and 25.73% and 30.22% and 151.11%.

Question: And the “lens appearance, effect of CAPE (in words)” value ([3]; left eye, intracameral CAPE after TPA)?
Answer: The value was “significantly clearer; also recorded: produced a prophylactic effect on incipient cataracts; also recorded: significantly reduced the pathological effects of this phorbol ester”.

Question: And the “cataract appearance, other test animals (in words)” value [3]?
Answer: Its value is “generally smaller and more immature”.

Question: What about the “animals with smaller cataract in CAPE-treated eye” value ([3]; rabbits, termination of the experiment) of the same molecule?
Answer: The value was 5 out of the 6.

Question: What about the “HMdUrd/10^4 bases” value (HMdUrd in epidermal DNA; CAPE 6.5 nmol then TPA 6.5 nmol, 2x, (2 experiments), SE 0.6 on next line) of the same molecule?
Answer: Its value is 13.1 /10^4 bases.

Question: And the “HMdUrd levels (in words)” value (HMdUrd in epidermal DNA; [4])?
Answer: Its value is “below the acetone/acetone controls”.

Question: What about the “decline of HMdUrd formation” value (HMdUrd in epidermal DNA; [4]) of the same molecule?
Answer: The value was 115%.

Question: And the “HMdUrd/10^4 bases” value (HMdUrd in epidermal DNA; CAPE 650 nmol then TPA 6.5 nmol, 2x, (2 experiments), SE 10.5 on next line)?
Answer: The value was 30.5 /10^4 bases.

Question: How did the “8-OHdGua/10^5 bases” value ([1]; TPA alone, 6.5 nmol, SE 6.3 on next line) turn out when CCCCCCCCCCCCCC(=O)O[C@@H]1[C@@H](C)[C@@]2(O)[C@@H](C=C(CO)C[C@]3(O)C(=O)C(C)=C[C@@H]23)[C@@H]2C(C)(C)[C@]12OC(C)=O [TPA, 12-O-tetradecanoylphorbol-13-acetate] was run?
Answer: The value was 11.8 /10^5 bases.

Question: What about the “weight of ear punches” value ([2]; TPA 0.4 nmol in acetone, 5 h, 6 mm punch) of the same molecule?
Answer: Its value is 16.7 ± 0.7 mg.

Question: What about the “Size of cataract, Control (TPA-treated right eye)” value ([3]; TPA 0.05 ml of 200 μg/ml into anterior chamber every third day, 16 times, one line per animal) of the same molecule?
Answer: The value was 63.139 relative units and 14.704 relative units and 104.97 relative units and 111.62 relative units and 99.923 relative units and 28.578 relative units.

Question: What about the “induction of cataracts in live rabbits (in words)” value ([3]; TPA injected into anterior chamber) of the same molecule?
Answer: Its value is “Cataracts of various sizes and types were evident by ocular examination in both eyes starting after the 12th TPA injection; also recorded: potent inducer of cataracts in the eyes of live rabbits”.

Question: And the “cataract appearance, rabbit No. 5 (in words)” value [3]?
Answer: Its value is “a rather large arched subcortical condensed immature but developing cataract is evident”.

Question: And the “cataract appearance, other test animals (in words)” value [3]?
Answer: Its value is “larger, more mature cataracts that had spread deeply into the nuclear region”.

Question: What about the “HMdUrd/10^4 bases” value (HMdUrd in epidermal DNA; TPA alone, 6.5 nmol, SE 6.4 on next line) of the same molecule?
Answer: The value was 39.4 /10^4 bases.
